Data as given in patent publication US8008456B2, “Compositions containing, methods involving, and uses of non-natural amino acids and polypeptides” (Ambrx, Inc., priority 2004, dated 2011).
Blank lines part the entries; values can stand above or below the compound they belong to.

Test: pH stability tests
Assay type: physicochemical
Protocol: This example provides the results of pH stability tests that were conducted on certain illustrative non-natural amino acids as an aid for predicting their properties for incorporation into non-natural amino acid polypeptides.

pH stability (pH 4.0, 1 hour): 2%
pH stability (pH 4.0, 1 day): 5%
pH stability (pH 4.0, 2 days): 5%
pH stability (pH 4.0, 3 days): 5%
pH stability (pH 4.0, 4 days): 8%
pH stability (pH 4.0, 5 days): 8%
pH stability (pH 4.0, 6 days): 8%
pH stability (pH 4.0, 7 days): 9%
pH stability (pH 4.0, 10 days): 10%
pH stability (pH 5.0, 1 hour): <1%
pH stability (pH 5.0, 1 day): 5%
pH stability (pH 5.0, 2 days): 5%
pH stability (pH 5.0, 3 days): 5%
pH stability (pH 5.0, 4 days): 5%
pH stability (pH 5.0, 5 days): 5%
pH stability (pH 5.0, 6 days): 5%
pH stability (pH 5.0, 7 days): 5%
pH stability (pH 5.0, 10 days): 5%
pH stability (pH 6.5, 1 hour): <1%
pH stability (pH 6.5, 1 day): <1%
pH stability (pH 6.5, 2 days): <1%
pH stability (pH 6.5, 3 days): <1%
pH stability (pH 6.5, 4 days): <1%
pH stability (pH 6.5, 5 days): <1%
pH stability (pH 6.5, 6 days): <1%
pH stability (pH 6.5, 7 days): <1%
pH stability (pH 6.5, 10 days): <1%
pH stability (pH 7.4, 1 hour): <1%
pH stability (pH 7.4, 1 day): 15%
pH stability (pH 7.4, 2 days): 15%
pH stability (pH 7.4, 3 days): 15%
pH stability (pH 7.4, 4 days): 15%
pH stability (pH 7.4, 5 days): 15%
pH stability (pH 7.4, 6 days): 15%
pH stability (pH 7.4, 7 days): 15%
pH stability (pH 7.4, 10 days): 15%
pH stability (pH 8.0, 1 hour): <1%
pH stability (pH 8.0, 1 day): 35%
pH stability (pH 8.0, 2 days): 38%
pH stability (pH 8.0, 3 days): 40%
pH stability (pH 8.0, 4 days): 45%
pH stability (pH 8.0, 5 days): 45%
pH stability (pH 8.0, 6 days): 45%
pH stability (pH 8.0, 7 days): 45%
pH stability (pH 8.0, 10 days): 45%
SMILES: COCCOC(=O)NCCO/N=C(\C)COc1ccccc1

pH stability (pH 4.0, 1 hour): 5%
pH stability (pH 4.0, 1 day): 7%
pH stability (pH 4.0, 2 days): 8%
pH stability (pH 4.0, 3 days): 10%
pH stability (pH 4.0, 4 days): 11%
pH stability (pH 4.0, 5 days): 11%
pH stability (pH 4.0, 6 days): 11%
pH stability (pH 4.0, 7 days): 11%
pH stability (pH 4.0, 10 days): 11%
pH stability (pH 5.0, 1 hour): <1%
pH stability (pH 5.0, 1 day): 3%
pH stability (pH 5.0, 2 days): 3%
pH stability (pH 5.0, 3 days): 5%
pH stability (pH 5.0, 4 days): 7%
pH stability (pH 5.0, 5 days): 7%
pH stability (pH 5.0, 6 days): 7%
pH stability (pH 5.0, 7 days): 8%
pH stability (pH 5.0, 10 days): 8%
pH stability (pH 6.5, 1 hour): <1%
pH stability (pH 6.5, 1 day): <1%
pH stability (pH 6.5, 2 days): <1%
pH stability (pH 6.5, 3 days): 2%
pH stability (pH 6.5, 4 days): 2%
pH stability (pH 6.5, 5 days): 2%
pH stability (pH 6.5, 6 days): 2%
pH stability (pH 6.5, 7 days): 2%
pH stability (pH 6.5, 10 days): 2%
pH stability (pH 7.4, 1 hour): <1%
pH stability (pH 7.4, 1 day): <1%
pH stability (pH 7.4, 2 days): <1%
pH stability (pH 7.4, 3 days): <1%
pH stability (pH 7.4, 4 days): <1%
pH stability (pH 7.4, 5 days): <1%
pH stability (pH 7.4, 6 days): <1%
pH stability (pH 7.4, 7 days): <1%
pH stability (pH 7.4, 10 days): <1%
pH stability (pH 8.0, 1 hour): 9%
pH stability (pH 8.0, 1 day): 24%
pH stability (pH 8.0, 2 days): 30%
pH stability (pH 8.0, 3 days): 30%
pH stability (pH 8.0, 4 days): 30%
pH stability (pH 8.0, 5 days): 30%
pH stability (pH 8.0, 6 days): 30%
pH stability (pH 8.0, 7 days): 33%
pH stability (pH 8.0, 10 days): 34%
SMILES: COCCOC(=O)NCCO/N=C(\C)CNC(=O)c1ccccc1

pH stability (pH 4.0, 1 hour): <1%
pH stability (pH 4.0, 1 day): <1%
pH stability (pH 4.0, 2 days): <1%
pH stability (pH 4.0, 3 days): <1%
pH stability (pH 4.0, 4 days): <1%
pH stability (pH 4.0, 5 days): <1%
pH stability (pH 4.0, 6 days): <1%
pH stability (pH 4.0, 7 days): <1%
pH stability (pH 4.0, 10 days): <1%
pH stability (pH 5.0, 1 hour): <1%
pH stability (pH 5.0, 1 day): <1%
pH stability (pH 5.0, 2 days): <1%
pH stability (pH 5.0, 3 days): <1%
pH stability (pH 5.0, 4 days): <1%
pH stability (pH 5.0, 5 days): <1%
pH stability (pH 5.0, 6 days): <1%
pH stability (pH 5.0, 7 days): <1%
pH stability (pH 5.0, 10 days): <1%
pH stability (pH 6.5, 1 hour): <1%
pH stability (pH 6.5, 1 day): <1%
pH stability (pH 6.5, 2 days): <1%
pH stability (pH 6.5, 3 days): <1%
pH stability (pH 6.5, 4 days): <1%
pH stability (pH 6.5, 5 days): <1%
pH stability (pH 6.5, 6 days): <1%
pH stability (pH 6.5, 7 days): <1%
pH stability (pH 6.5, 10 days): <1%
pH stability (pH 7.4, 1 hour): <1%
pH stability (pH 7.4, 1 day): <1%
pH stability (pH 7.4, 2 days): <1%
pH stability (pH 7.4, 3 days): <1%
pH stability (pH 7.4, 4 days): <1%
pH stability (pH 7.4, 5 days): <1%
pH stability (pH 7.4, 6 days): <1%
pH stability (pH 7.4, 7 days): <1%
pH stability (pH 7.4, 10 days): <1%
pH stability (pH 8.0, 1 hour): <1%
pH stability (pH 8.0, 1 day): <1%
pH stability (pH 8.0, 2 days): <1%
pH stability (pH 8.0, 3 days): <1%
pH stability (pH 8.0, 4 days): <1%
pH stability (pH 8.0, 5 days): <1%
pH stability (pH 8.0, 6 days): <1%
pH stability (pH 8.0, 7 days): <1%
pH stability (pH 8.0, 10 days): <1%
SMILES: COCCOC(=O)NCCO/N=C(\C)C(=O)c1ccccc1

pH stability (pH 4.0, 1 hour): <1%
pH stability (pH 4.0, 1 day): <1%
pH stability (pH 4.0, 2 days): <1%
pH stability (pH 4.0, 3 days): <1%
pH stability (pH 4.0, 4 days): <1%
pH stability (pH 4.0, 5 days): <1%
pH stability (pH 4.0, 6 days): <1%
pH stability (pH 4.0, 7 days): <1%
pH stability (pH 4.0, 10 days): <1%
pH stability (pH 5.0, 1 hour): <1%
pH stability (pH 5.0, 1 day): <1%
pH stability (pH 5.0, 2 days): <1%
pH stability (pH 5.0, 3 days): <1%
pH stability (pH 5.0, 4 days): <1%
pH stability (pH 5.0, 5 days): <1%
pH stability (pH 5.0, 6 days): <1%
pH stability (pH 5.0, 7 days): <1%
pH stability (pH 5.0, 10 days): <1%
pH stability (pH 6.5, 1 hour): <1%
pH stability (pH 6.5, 1 day): <1%
pH stability (pH 6.5, 2 days): <1%
pH stability (pH 6.5, 3 days): <1%
pH stability (pH 6.5, 4 days): <1%
pH stability (pH 6.5, 5 days): <1%
pH stability (pH 6.5, 6 days): <1%
pH stability (pH 6.5, 7 days): <1%
pH stability (pH 6.5, 10 days): <1%
pH stability (pH 7.4, 1 hour): <1%
pH stability (pH 7.4, 1 day): <1%
pH stability (pH 7.4, 2 days): <1%
pH stability (pH 7.4, 3 days): <1%
pH stability (pH 7.4, 4 days): <1%
pH stability (pH 7.4, 5 days): <1%
pH stability (pH 7.4, 6 days): <1%
pH stability (pH 7.4, 7 days): <1%
pH stability (pH 7.4, 10 days): <1%
pH stability (pH 8.0, 1 hour): <1%
pH stability (pH 8.0, 1 day): <1%
pH stability (pH 8.0, 2 days): <1%
pH stability (pH 8.0, 3 days): <1%
pH stability (pH 8.0, 4 days): <1%
pH stability (pH 8.0, 5 days): <1%
pH stability (pH 8.0, 6 days): <1%
pH stability (pH 8.0, 7 days): <1%
pH stability (pH 8.0, 10 days): <1%
SMILES: COCCOC(=O)NCCO/N=C1\C(=O)Nc2ccccc21

pH stability (pH 4.0, 1 hour): <1%
pH stability (pH 4.0, 1 day): <1%
pH stability (pH 4.0, 2 days): <1%
pH stability (pH 4.0, 3 days): <1%
pH stability (pH 4.0, 4 days): <1%
pH stability (pH 4.0, 5 days): <1%
pH stability (pH 4.0, 6 days): <1%
pH stability (pH 4.0, 7 days): <1%
pH stability (pH 4.0, 10 days): <1%
pH stability (pH 5.0, 1 hour): <1%
pH stability (pH 5.0, 1 day): <1%
pH stability (pH 5.0, 2 days): <1%
pH stability (pH 5.0, 3 days): <1%
pH stability (pH 5.0, 4 days): <1%
pH stability (pH 5.0, 5 days): <1%
pH stability (pH 5.0, 6 days): <1%
pH stability (pH 5.0, 7 days): <1%
pH stability (pH 5.0, 10 days): <1%
pH stability (pH 6.5, 1 hour): <1%
pH stability (pH 6.5, 1 day): <1%
pH stability (pH 6.5, 2 days): <1%
pH stability (pH 6.5, 3 days): <1%
pH stability (pH 6.5, 4 days): <1%
pH stability (pH 6.5, 5 days): <1%
pH stability (pH 6.5, 6 days): <1%
pH stability (pH 6.5, 7 days): <1%
pH stability (pH 6.5, 10 days): <1%
pH stability (pH 7.4, 1 hour): <1%
pH stability (pH 7.4, 1 day): <1%
pH stability (pH 7.4, 2 days): <1%
pH stability (pH 7.4, 3 days): <1%
pH stability (pH 7.4, 4 days): <1%
pH stability (pH 7.4, 5 days): <1%
pH stability (pH 7.4, 6 days): <1%
pH stability (pH 7.4, 7 days): <1%
pH stability (pH 7.4, 10 days): <1%
pH stability (pH 8.0, 1 hour): <1%
pH stability (pH 8.0, 1 day): <1%
pH stability (pH 8.0, 2 days): <1%
pH stability (pH 8.0, 3 days): <1%
pH stability (pH 8.0, 4 days): <1%
pH stability (pH 8.0, 5 days): <1%
pH stability (pH 8.0, 6 days): <1%
pH stability (pH 8.0, 7 days): <1%
pH stability (pH 8.0, 10 days): <1%
SMILES: COCCOC(=O)NCCO/N=C(\C)C(=O)Nc1ccccc1 [drawing 134]
